Common to all, as to format: in vivo
One assay has as its system Boophilus microplus. Kind of assay: Boophilus microplus test (BOOPMI injection). The conditions noted are these: application rate of 20 μg/animal, injection into the abdomen. The procedure: (§1) • Solvent: dimethyl sulphoxide
(§2) To prepare a suitable active compound preparation, 1 part by weight of active compound is mixed with the stated amount of solvent, and the concentrate is diluted with water to the desired concentration.
The solution of active compound is injected into the abdomen (Boophilus microplus), and the animals are transferred into dishes and kept in a climatised room. The activity is assessed by […] of fertile eggs.
After the desired period of time, the effect in % is determined. 100% means that none of the ticks has laid any fertile eggs.

The test system of another assay is Summer wheat. Kind of assay: Container trials with cereal in a greenhouse, use of safeners (mefenpyr 1 day prior to herbicide application). The conditions noted are these: 28 days after application, without safener. Here is the method:
Seeds of monocotyledonous and dicotyledonous weed and crop plants are placed in sandy loam in wood fibre pots, covered with soil and cultivated in a greenhouse under good growth conditions. 2 to 3 weeks after sowing, the test plants are treated at the one-leaf stage. The test compounds, formulated as wettable powders (WP), are then, with a water application rate of 600 l/ha (converted), with 0.2% of wetting agent added, sprayed at various dosages onto the green parts of the plants. After the test plants have […], the activity of the preparations is rated visually in comparison to untreated controls (herbicidal activity in percent: 100% activity=the plants have died, 0% activity=like control plants).
If it is additionally to be tested as to whether safeners can improve the plant compatibility of test substances in the case of crop plants, the following options are used for applying the safener: • seeds of the crop plants are, before sowing, dressed with the safener substance (the amount of safener stated in percent, based on the weight of the seed) • before application of the test substances, the crop plants are sprayed with the safener at a certain application rate per hectare (usually 1 day before the application of the test substances) • the safener is applied together with the test substance as a tank mix (the amount of safener stated in g/ha or as a ratio, based on the herbicide). Container Trials with Cereal in a Greenhouse Mefenpyr 1 Day Prior to Herbicide Application

The subject of a further assay is Lucilia cuprina larvae. Kind of assay: Lucillia cuprina test (LUCICU). The conditions noted are these: application rate of 100 ppm, treated horse meat. Here is the method:
as §1, §2
Vessels containing horse meat treated with the active compound preparation of the desired concentration are populated with Lucilia cuprina larvae.
After the desired period of time, the kill in % is determined. 100% means that all of the larvae have been killed; 0% means that none of the larvae have been killed.

Each structure is given as a SMILES string.

This note sets out measurements from patent US8846946B2, “Germinal alkoxy/alkylspirocyclic substituted tetramate derivatives” (Bayer CropScience AG, priority 2008, dated 2014).

For `CCOC(=O)OC1=C(c2c(C)cc(C)cc2C)C(=O)NC12CCC(C)(OC)CC2` (stereo not drawn) [I-c-3], the “efficacy (no fertile eggs laid)” value in the assay on Boophilus microplus was “good efficacy”.
With `CCc1cc(C)cc(C)c1C1=C(O)C2(CCC(CC)(OC)CC2)NC1=O` (mixture of isomers) [I-a-64], the “Summer wheat observed (%)” value in the assay with Summer wheat (application rate 12.5 g a.i./ha) was found to be 20%; in the assay on Summer wheat (application rate 25 g a.i./ha), 60%; in the assay with Summer wheat (application rate 50 g a.i./ha), 70%.
For the molecule `COC1(C)CCC2(CC1)NC(=O)C(c1c(C)cc(Cl)cc1C)=C2O` (mixture of isomers) [I-a-3], the “kill in % (larvae killed)” value with Lucilia cuprina larvae is listed as at least 80%. In addition, the “efficacy (no fertile eggs laid)” value in the assay on Boophilus microplus is given as “good efficacy”.
